Measured values from ChEMBL document CHEMBL4665885, “Structural Basis of Nanomolar Inhibition of Tumor-Associated Carbonic Anhydrase IX: X-Ray Crystallographic and Inhibition Study of Lipophilic Inhibitors with Acetazolamide Backbone” (J Med Chem, 2020).

Tests used:
Carbonic anhydrase 1 = Carbonic anhydrase 1 (Homo sapiens, UniProt P00915); experiment: Inhibition of recombinant human CA1 expressed in Escherichia coli BL21 preincubated for 15 mins by phenol red dye-based stopped-flow CO2 hydration assay
Carbonic anhydrase 9 = Carbonic anhydrase 9 (Homo sapiens, UniProt Q16790); experiment: Inhibition of recombinant human CA9 expressed in Escherichia coli BL21 preincubated for 15 mins by phenol red dye-based stopped-flow CO2 hydration assay

Carbonic anhydrase 1, sequence (P00915 whole entry): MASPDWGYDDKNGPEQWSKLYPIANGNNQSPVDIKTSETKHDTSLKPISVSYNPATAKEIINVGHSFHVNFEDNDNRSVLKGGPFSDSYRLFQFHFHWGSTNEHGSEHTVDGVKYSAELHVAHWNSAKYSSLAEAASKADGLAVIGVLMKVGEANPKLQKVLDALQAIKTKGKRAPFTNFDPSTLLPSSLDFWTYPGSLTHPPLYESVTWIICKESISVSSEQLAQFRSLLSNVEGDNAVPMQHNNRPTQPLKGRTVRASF

| SMILES | Ki (Carbonic anhydrase 1) [nM] | Ki (Carbonic anhydrase 9) [nM] |
| --- | --- | --- |
| CCCC(=O)Nc1nnc(S(N)(=O)=O)s1 | 53.8 | 2.1 |
| CCC(=O)Nc1nnc(S(N)(=O)=O)s1 [PROPAZOLAMIDE] |  | 12.8 |
| CC(C)C(=O)Nc1nnc(S(N)(=O)=O)s1 | 75.1 | 2.4 |
| CC(C)(C)C(=O)Nc1nnc(S(N)(=O)=O)s1 | 63.4 | 8.2 |
| NS(=O)(=O)c1nnc(NC(=O)C2CCCCC2)s1 | 62.8 | 15.7 |
